Entries after “also recorded” stand apart in the source; their conditions may differ.
How the values were obtained:
[1] = test system: renal fibrosis induced by unilateral ureter occlusion (UUO); experiment: Mouse UUO model of renal fibrosis; type: in vivo, CD-1 mice
Procedure: Test animals were allocated to weight-matched treatment groups on the day prior to the surgical procedure (Day −1). Male CD-1 mice (N=51; age, 7-8 weeks) underwent either sham surgery or total ligation of the right ureter, i.e. UUO, via aseptic laparotomy (FIG. 5). […] Another group received the anti-transforming growth factor TGF-β1 antibody, compound 1D11 (positive control) at 3 mg/kg/day from Days −1 to 4, injected intraperitoneally once daily, and vehicle control from Days 0 to 5. […] On Day 5, animals were anaesthetised, blood and tissues were collected prior to sacrifice.
Study endpoints included: a) body and kidney weights; b) fibrosis in obstructed kidney evaluated via histological quantitative image analysis of picrosirius red staining (ten images/depth/kidney obtained and assessed in a blinded fashion using light microscopy [at 200×] to enable sampling of 60-70% of the renal cortical area) and quantified by a composite Collagen Volume Fraction (CVF [% total area imaged]) score expressed as the average positive stain across three anatomically distinct ([…] apart) tissue sections, or depths, from the obstructed kidney; c) hydroxyproline content of frozen renal cortical tissue biopsies as assessed by biochemical analyses; d) mRNA expression of profibrotic and inflammatory biomarkers (including MCP-1, Collagen 1a1, Collagen 3a1, TGF-β1, Fibronectin-1, α-smooth muscle actin (α-SMA) and connective tissue growth factor-1 (CTGF-1); assessed via Luminex® (Life Technologies™, Carlsbad, Calif., USA) assay with relative expression normalised to HPRT (hypoxanthine phosphoribosyltransferase).
Data are expressed as mean±standard error of mean (SEM). Statistical analyses were performed using GraphPad Prism® (GraphPad Software, Inc., San Diego, Calif., USA). Treatment differences between sham-surgery+vehiclecontrol and UUO+vehicle-control groups, and between UUO+vehicle-control and UUO+compound-1D1 (positive control) groups, were analysed by unpaired t-Test. Treatment differences between UUO+vehicle-control and CVC-dose groups were analysed by one-way ANOVA (analysis of variance) with Dunnett's test (post-hoc).

[2] = test system: STAM™ mouse model of Non-alcoholic Steatohepatitis; experiment: STAM mouse model of NASH, Part 1: anti-NASH/fibrosis effects at week 9; type: in vivo, mice; details: for Body weight / Liver-to-body weight ratio / Collagen Type 1 mRNA expression level (liver, quantitative RT-PCR) / MCP-1 mRNA expression level (liver, quantitative RT-PCR) / TIMP-1 mRNA expression level (liver, quantitative RT-PCR): mean ± SD; for Collagen Type 1 mRNA expression level (liver, quantitative RT-PCR) / MCP-1 mRNA expression level (liver, quantitative RT-PCR) / TIMP-1 mRNA expression level (liver, quantitative RT-PCR): Vehicle 1.00
Procedure: NASH was induced in male mice by a single injection of 200 μg streptozotocin 2 days after birth (causing impaired glucose control), followed by a high fat diet from 4 weeks of age. […] Animals were sacrificed at 9 weeks of age, and biochemical, gene expression, and histologic evaluations of the liver were conducted. […] Group 2-Cenicriviroc 20 mg/kg (CVC-low): […] [table]

[3] = CVC plasma exposures, healthy volunteers vs HIV-infected subjects; type: in vivo, human; details: same dosing conditions; Studies 652-1-111, 652-1-110, 652-2-202
[4] = Chronic (3- and 9-month) monkey toxicity studies; type: in vivo
[5] = Phase 1 CVC and pioglitazone co-administration PK and safety study; type: in vivo, healthy subjects; details: CVC 150 mg QD and PGZ 45 mg QD
Procedure: Plasma samples were collected prior to each dose and over 24 hours at the end of each treatment period. Cmax, Cmin, tmax, and AUC0-tau were determined using non-compartmental methods. Geometric means, GMRs and CIs were calculated.

[6] = test system: STAM™ mouse model of Non-alcoholic Steatohepatitis; experiment: STAM mouse model of NASH, Part 2: anti-HCC effects at week 18; details: for Body weight / Liver-to-body weight ratio: mean ± SD; for mice that died (survival analysis): 6 to 18 weeks
Procedure: Group 1-Vehicle: Eighteen NASH mice were orally administered vehicle at a volume of 10 mL/kg twice daily (9:00 and 19:00) from 6 weeks of age.

HIV-1 infected subjects = experiment: Study 202 efficacy and tolerability; type: in vivo, human; details: CVC 100 mg and 200 mg for up to 48 weeks, 115 subjects
[7] = CVC 7 and 20 mg/kg/day, compound 1D11, vs UUO+vehicle-control
[8] = CVC-high 100 mg/kg/day, week 9, listed as Cenicriviroc
[9] = CVC-high 100 mg/kg/day, week 9, n = 6
[10] = CVC-low 20 mg/kg/day, week 9, listed as Cenicriviroc
[11] = CVC-low 20 mg/kg/day, week 9, n = 6
[12] = CVC-high 100 mg/kg/day, week 18
[13] = CVC-high 100 mg/kg/day, week 18, listed as Cenicriviroc
[14] = CVC-low 20 mg/kg/day, week 18, listed as Cenicriviroc

CCCCOCCOc1ccc(-c2ccc3c(c2)/C=C(/C(=O)Nc2ccc([S@@+]([O-])Cc4cncn4CCC)cc2)CCCN3CC(C)C)cc1 [CVC, (S)-8-[4-(2-Butoxyethoxy)phenyl]-1-isobutyl-N-(4-{[(1-propyl-1H-imidazol-5-yl)methyl]sulfinyl}phenyl)-1,2,3,4-tetrahydro-1-benzazocine-5-carboxamide]
effect on body weight ([1]; CVC 7 mg/kg/day oral, compound 1D11 3 mg/kg/day i.p., Day 5): no effect | decrease in body weight relative to UUO+vehicle-control ([1]; CVC 20 mg/kg/day, Day 5): 5% | tolerability after UUO surgery ([1]; CVC 100 mg/kg/day group (N=9)): terminated early due to moribundity | effect on UUO-induced increases in obstructed kidney hydroxyproline content ([1]; CVC 7 and 20 mg/kg/day): Neither dose of CVC tested affected | effects on obstructed or contralateral kidney weight or kidney weight index ([1]; CVC 7 and 20 mg/kg/day, compound 1D11 3 mg/kg/day, vs UUO+vehicle-control): No significant treatment effects | Collagen 1a1, Collagen 3a1, TGF-β1 and Fibronectin-1 mRNA expression in obstructed kidney [1, 7]: attenuated UUO-induced increases | obstructed kidney cortical MCP-1, α-SMA and CTGF-1 mRNA expression [1, 7]: did not have significant effects | collagen type 1 mRNA in whole liver lysates, decrease (real-time RT-PCR) ([2]; CVC treatment 20 and 100 mg/kg/day, 9 weeks of age): 27-37% | Body weight ([2]; CVC-high 100 mg/kg/day, week 9): 18.7 ± 0.9 g | Liver-to-body weight ratio ([2]; CVC-high 100 mg/kg/day, week 9): 7.0±0.8% | Collagen Type 1 mRNA expression level (liver, quantitative RT-PCR) ([2]; CVC-high 100 mg/kg/day, week 9): 0.73±0.04 | MCP-1 mRNA expression level (liver, quantitative RT-PCR) ([2]; CVC-high 100 mg/kg/day, week 9): 1.00±0.53 | TIMP-1 mRNA expression level (liver, quantitative RT-PCR) ([2]; CVC-high 100 mg/kg/day, week 9): 0.80±0.20 | Collagen Type 1 mRNA expression level (liver, quantitative RT-PCR) [2, 8]: 0.73 ± 0.04 | MCP-1 mRNA expression level (liver, quantitative RT-PCR) [2, 8]: 1.00 ± 0.53 | TIMP-1 mRNA expression level (liver, quantitative RT-PCR) [2, 8]: 0.80 ± 0.20 | Body weight [2, 8]: 18.7 ± 0.9 g | Liver-to-body weight ratio [2, 8]: 7.0 ± 0.8% | Hepatocyte ballooning score 0 (None), number of mice [2, 9]: 1 | Hepatocyte ballooning score 1 (Few balloon cells), number of mice [2, 9]: 2 | Hepatocyte ballooning score 2 (Many cells/prominent ballooning), number of mice [2, 9]: 3 | Lobular inflammation score 1 (<2 foci/200x), number of mice [2, 9]: 3 | Lobular inflammation score 2 (2-4 foci/200x), number of mice [2, 9]: 3 | Steatosis score 0 (<5%), number of mice [2, 9]: 1 | Steatosis score 1 (5-33%), number of mice [2, 9]: 5 | Body weight ([2]; CVC-low 20 mg/kg/day, week 9): 19.5 ± 2.0 g | Liver-to-body weight ratio ([2]; CVC-low 20 mg/kg/day, week 9): 6.9±1.0% | Collagen Type 1 mRNA expression level (liver, quantitative RT-PCR) ([2]; CVC-low 20 mg/kg/day, week 9): 0.63±0.10 | TIMP-1 mRNA expression level (liver, quantitative RT-PCR) ([2]; CVC-low 20 mg/kg/day, week 9): 0.75±0.32 | Collagen Type 1 mRNA expression level (liver, quantitative RT-PCR) [2, 10]: 0.63 ± 0.10 | TIMP-1 mRNA expression level (liver, quantitative RT-PCR) [2, 10]: 0.75 ± 0.32 | Body weight [2, 10]: 19.5 ± 2.0 g | Liver-to-body weight ratio [2, 10]: 6.9 ± 1.0% | Hepatocyte ballooning score 1 (Few balloon cells), number of mice [2, 11]: 3 | Hepatocyte ballooning score 2 (Many cells/prominent ballooning), number of mice [2, 11]: 3 | Lobular inflammation score 1 (<2 foci/200x), number of mice [2, 11]: 3 | Lobular inflammation score 2 (2-4 foci/200x), number of mice [2, 11]: 3 | Steatosis score 1 (5-33%), number of mice [2, 11]: 6 | general condition throughout the treatment period ([2]; CVC-low and CVC-high, until week 9): None of the animals in the present study showed deterioration in general condition | CVC plasma exposures in non-HIV infected healthy volunteers compared to HIV-infected subjects [3]: higher | plasma MCP-1 levels, fold over controls ([4]; 1000 mg/kg/day, chronic (3- and 9-month) monkey toxicity studies): ~5 fold | indication of inflammation in clinical pathology parameters or any tissue incl. liver ([4]; high dose of 1000 mg/kg/day): No indication of inflammation | Cmin on co-administration [5]: remained unchanged | steady-state Cmax and AUC0-tau on co-administration [5]: modest decrease | effect on NASH-derived HCC ([6]; CVC treatment groups, week 18): not observed | Body weight [6, 12]: 20.8 ± 2.7 g | Liver-to-body weight ratio [6, 12]: 8.8±2.3% | Body weight [6, 13]: 20.8 ± 2.7 g | Liver-to-body weight ratio [6, 13]: 8.8 ± 2.3% | mice that died (survival analysis) ([6]; CVC-high group): Five out of twelve mice died | mice with GS-positive nodules ([6]; CVC-high group, week 18): seven out of seven mice | mice with HCC lesions (HE staining) ([6]; CVC-high group, week 18): six out of seven mice | Body weight ([6]; CVC-low 20 mg/kg/day, week 18): 22.9 ± 3.5 g | Liver-to-body weight ratio ([6]; CVC-low 20 mg/kg/day, week 18): 8.3±2.8% | Body weight [6, 14]: 22.9 ± 3.5 g | Liver-to-body weight ratio [6, 14]: 8.3 ± 2.8% | mice that died (survival analysis) ([6]; CVC-low group): Six out of twelve mice died | mice with GS-positive nodules ([6]; CVC-low group, week 18): five out of six mice | mice with HCC lesions (HE staining) ([6]; CVC-low group, week 18): five out of six mice | tolerability in HIV-1 infected subjects (HIV-1 infected subjects): generally well tolerated; also recorded: effective and well tolerated
